Here are results for eleven compounds from PubChem BioAssay (NCI).

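Exposure lasted 48 hours, with cells grown in 96-well plates and compounds tested at five concentrations. GI50 marks 50% less growth. TGI: concentration producing complete growth inhibition.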

Among the test systems are OVCAR-5 ovarian; RPMI-8226 leukemia; UACC-62 melanoma; 786-0 renal; SN12C renal; HOP-92 NSCLC; TK-10 renal; SNB-75 CNS; MALME-3M melanoma; OVCAR-4 ovarian.
Test in all cases: NCI anticancer screen, dose series, 48 h

On to `CN(CC(=O)O)c1ccc(/C=C/c2ccnc3ccccc23)cc1`, for which the TGI in the assay with OVCAR-5 ovarian is 94 µM; in the assay on RPMI-8226 leukemia it was 57.5 µM; in the assay with UACC-62 melanoma, 52.2 µM; in the assay on 786-0 renal, greater than 100 µM; in the assay on SN12C renal, 92.8 µM; with HOP-92 NSCLC it was greater than 100 µM. In addition, the TGI was 47.7 µM with TK-10 renal and 86.8 µM in the assay with SNB-75 CNS.
Turning to `[C-]#[O+].[C-]#[O+].[C-]#[O+].[C-]#[O+].[Ir].[Ir].[O-]c1ccc2ccccc2c1C=Nc1ccc(N=Cc2c([O-])ccc3ccccc23)cc1`, the GI50 with OVCAR-5 ovarian was greater than 100 µM; in the assay with MALME-3M melanoma it was greater than 100 µM; in the assay with RPMI-8226 leukemia it was greater than 100 µM; in the assay with UACC-62 melanoma it was greater than 100 µM; with 786-0 renal, 46.3 µM; in the assay with OVCAR-4 ovarian, greater than 100 µM. The GI50 in the assay on SN12C renal was greater than 100 µM; in the assay on HOP-92 NSCLC, 40 µM; in the assay on TK-10 renal it was greater than 100 µM. For the same compound, the TGI in the assay with OVCAR-5 ovarian, with MALME-3M melanoma, in the assay on RPMI-8226 leukemia, in the assay on UACC-62 melanoma, in the assay on 786-0 renal and in the assay on OVCAR-4 ovarian was greater than 100 µM in each case. The TGI in the assay on SN12C renal, with HOP-92 NSCLC and in the assay on TK-10 renal was greater than 100 µM each time.
Regarding `CC(C)(O)C1CCC(Nc2ccc3ncc(-c4cccc(C(F)(F)F)c4)n3n2)CC1` (stereo unspecified), the GI50 is 2.92 µM in the assay with OVCAR-5 ovarian; 2.25 µM in the assay with MALME-3M melanoma; 0.266 µM with RPMI-8226 leukemia; 1.97 µM in the assay on UACC-62 melanoma; 1.94 µM in the assay on 786-0 renal; 2.62 µM in the assay with OVCAR-4 ovarian. Moreover, the GI50 with SN12C renal was 3.17 µM; in the assay with TK-10 renal, 2.62 µM; in the assay on SNB-75 CNS it was 1.77 µM. Also, the TGI in the assay on OVCAR-5 ovarian was greater than 100 µM; with MALME-3M melanoma, 13.6 µM; in the assay on RPMI-8226 leukemia, 0.79 µM; in the assay on UACC-62 melanoma, 8.83 µM; in the assay with 786-0 renal, 4.64 µM; with OVCAR-4 ovarian, 12.5 µM. Besides, the TGI stood at 17 µM in the assay on SN12C renal, 14.1 µM with TK-10 renal and 8.99 µM in the assay with SNB-75 CNS.
Take `OCC(O)C(OC1OC(CO)C(O)C(O)C1O)c1nn(-c2ccccc2)c2nc3cc(Cl)c(Cl)cc3cc12` (stereo unspecified): the TGI in the assay on OVCAR-5 ovarian, in the assay with MALME-3M melanoma, in the assay on RPMI-8226 leukemia, in the assay on UACC-62 melanoma, in the assay on 786-0 renal and in the assay on OVCAR-4 ovarian was greater than 100 µM throughout. The TGI in the assay with SN12C renal, in the assay with TK-10 renal and in the assay with SNB-75 CNS was greater than 100 µM in each case.
On to `CC1CC2C(=O)N(c3ccccc3)C(=O)C2c2c1c1ccccc1n2Cc1ccccc1` (stereo unspecified), for which the TGI in the assay with OVCAR-5 ovarian, with MALME-3M melanoma, in the assay with RPMI-8226 leukemia, in the assay with UACC-62 melanoma, with 786-0 renal and with OVCAR-4 ovarian was greater than 100 µM in each case. Further, the TGI with SN12C renal and in the assay on HOP-92 NSCLC was greater than 100 µM in each case.
With `N#Cc1c(N)nc(N2CCOCC2)c(C#N)c1-c1ccc(Cl)cc1`, the GI50 with OVCAR-5 ovarian was 80.4 µM; in the assay with RPMI-8226 leukemia, 26.5 µM; with UACC-62 melanoma it was 23 µM; in the assay on 786-0 renal it was 70.7 µM; in the assay on OVCAR-4 ovarian, 29.8 µM; in the assay with SN12C renal it was 50.9 µM. For the same compound, the figures for the GI50 in the assay with HOP-92 NSCLC and in the assay on SNB-75 CNS were 9 µM and 14.5 µM, respectively. The TGI in the assay with OVCAR-5 ovarian, in the assay with RPMI-8226 leukemia, with UACC-62 melanoma, in the assay with 786-0 renal, in the assay with OVCAR-4 ovarian and with SN12C renal was greater than 100 µM in each case. Further, the TGI with HOP-92 NSCLC worked out at 78.4 µM; with SNB-75 CNS it was 55.9 µM.
Take `CCCCCCC#Cc1ccccc1C#CCO`: the GI50 in the assay on OVCAR-5 ovarian is 38.7 µM; with RPMI-8226 leukemia it was 15 µM; in the assay with UACC-62 melanoma it was 19.1 µM; with 786-0 renal it was 31.3 µM; in the assay on OVCAR-4 ovarian it was 24.5 µM; in the assay on SN12C renal, 19.4 µM. The GI50 is 13.8 µM in the assay on HOP-92 NSCLC and 22.6 µM with TK-10 renal. Also, the TGI in the assay with OVCAR-5 ovarian was greater than 100 µM; in the assay on RPMI-8226 leukemia, 31.4 µM; with UACC-62 melanoma it was 43.6 µM; with 786-0 renal it was 96.1 µM; with OVCAR-4 ovarian it was 81.6 µM; with SN12C renal, 39.7 µM. The TGI in the assay with HOP-92 NSCLC came out at 26.7 µM; in the assay on TK-10 renal, 61.4 µM.
For `CCc1ccccc1N1CCN(C(=O)c2cc(OC)c(OC)c(OC)c2)CC1`, the TGI in the assay with OVCAR-5 ovarian is greater than 100 µM; in the assay with MALME-3M melanoma, 55.9 µM; in the assay with RPMI-8226 leukemia, 23.1 µM; with UACC-62 melanoma, greater than 68.8 µM; in the assay on 786-0 renal, greater than 100 µM; with SN12C renal, greater than 100 µM. Further, the results for the TGI with HOP-92 NSCLC, in the assay on TK-10 renal and with SNB-75 CNS were 12.3 µM, greater than 93.3 µM and greater than 100 µM, respectively.
As to `O=c1c2cc(Br)ccc2nc(-c2ccccc2Cl)n1NCC1(O)OCC(O)C(O)C1O` (stereo unspecified), the TGI in the assay on OVCAR-5 ovarian, in the assay with MALME-3M melanoma, in the assay on RPMI-8226 leukemia, in the assay on UACC-62 melanoma, in the assay on 786-0 renal and with OVCAR-4 ovarian was greater than 100 µM throughout. For the same compound, the TGI in the assay with SN12C renal and in the assay with SNB-75 CNS was greater than 100 µM each time.
For `Fc1cccc2cc3ccc4cccc5ccc(c12)c3c45`, the TGI with OVCAR-5 ovarian, in the assay on MALME-3M melanoma, in the assay on UACC-62 melanoma, in the assay on 786-0 renal, with OVCAR-4 ovarian and in the assay on SN12C renal was greater than 100 µM in each case. Also, the TGI in the assay with TK-10 renal and in the assay with SNB-75 CNS was greater than 100 µM in each case.
In the case of `CC(C)C[C@H](NC(=O)[C@H]1O[C@@H]1C(=O)O)C(=O)NCCc1ccc(O)cc1`, the GI50 in the assay on OVCAR-5 ovarian, in the assay on MALME-3M melanoma, with RPMI-8226 leukemia, in the assay on UACC-62 melanoma, in the assay on 786-0 renal and in the assay with SN12C renal was greater than 100 µM each time. Moreover, the GI50 in the assay with HOP-92 NSCLC, with TK-10 renal and in the assay on SNB-75 CNS was greater than 100 µM each time. In addition, the TGI in the assay with OVCAR-5 ovarian, in the assay on MALME-3M melanoma, in the assay on RPMI-8226 leukemia, with UACC-62 melanoma, in the assay on 786-0 renal and in the assay with SN12C renal was greater than 100 µM each time. The TGI with HOP-92 NSCLC, with TK-10 renal and with SNB-75 CNS was greater than 100 µM in each case.
